Experimental data: patent publication US20230023009A1, “HETEROCYCLIC COMPOUNDS AND METHODS OF USE THEREOF” (SPARCBIO LLC, priority 2020, published 2023)
Where two headings read alike, the source gives them in different places.

How the values were obtained:
[1] = system: Phosphorylation of ERK in NCI-H358 cells; experiment: pERK assay (Method II, homogeneous TR-FRET); assay type: cell-based; conditions: Homo sapiens, 4 hrs compound treatment
Protocol: Method II. Phosphorylation of ERK was assessed by a homogeneous TR-FRET assay (Advanced phospho-ERK (Thr202/Tyr204) cellular kit; Cat. #64AERPEH, Cisbio). In brief, NCI-H358 cells were seeded in a 384-well culture plate at a density of 6000 cells in 40 μL medium/well and grown overnight at 37° C. and 5% CO2. Each test compound was dosed in duplicate in a 10-dose 3-fold titration starting at 10 μM or 2 μM. The culture plate was then incubated for 4 hrs in the incubator. At the end of the compound treatment, the medium was removed, 35 μL of lysis buffer was added to each well, and the plate was agitated on a plate shaker for 40 mins at 4° C. An antibody cocktail of phospho-ERK1/2 Eu Cryptate antibody and Phospho-ERK1/2 d2 antibody was prepared by separately diluting the antibodies 20-fold with detection buffer and then mixing them together. 3.4 μL of antibody cocktail was dispensed to each well of an empty 384-well white ProxiPlus assay plate (Perkin Elmer), and the plate briefly centrifuged. 13.6 μL of cell lysate was then added to the antibody-containing wells, and the plate was briefly centrifuged and then incubated 2 hrs at room temperature. The plate was read on a fluorescence plate reader (Envision2104, Perkin Elmer), with an excitation wavelength of 337 nm and emission wavelengths of 615 nm and 665 nm. The IC50 value of each test compound was calculated with XLFit curve fitting software. Results are shown in Table 6. ‘+++’ indicates IC50 values≤300 nM, ‘++’ indicates IC50 values between 300 nM-3 μM, and ‘+’ indicates IC50 values≥3 μM.

NCI-H358 cells = experiment: 3D cell proliferation assay (Cell Titer-Glo 3D, 7 days); assay type: cell-based; conditions: Homo sapiens, NCI-H358, 168 h, NCI-H358 3D, ultra-low attachment plate
Protocol: NCI-H358 cells (ATCC® CRL-5807™) were plated in a 384-well Black/Clear Round Bottom Ultra-Low Attachment Microplate (Corning) in medium (RPMI-1640+10% FBS) at a density of 1000 cells in 50 μL per well, then incubated overnight at 37° C. and 5% CO2. Cells were treated with test compounds at 9 concentrations within a specified concentration range (e.g., 0.5 nM-10 μM) for generation of dose response curves. Test compounds were prepared by 1:3 serial dilution in DMSO from a specified starting concentration (e.g., 20 μM, 2 μM or 0.2 μM) and then added to wells of the assay plate in a total volume of 150 nL DMSO. The cells were further incubated at 37° C. and 5% CO2 for 7 days. Cell viability was assessed by adding 40 μL of Cell Titer-Glo® 3D reagent (Cat. No.: G9683, Promega) to each well and reading luminescence after mixing and incubation of the samples. The IC50 value of each test compound was calculated with XLFit curve fitting software.

[2] = system: MIA PaCa-2 subcutaneous xenograft tumors
Protocol: MIA PaCa-2 cells were injected subcutaneously (10×10^6 cells in 0.2 mL of PBS with Matrigel (1:1)) into the right flanks of 6-8-week-old female BALB/c nude mice and allowed to grow until the average tumor size reached 150-200 mm^3. The mice were then stratified into treatment groups of 8 animals and treatment initiated on Day 0. Test compound or vehicle (1% Tween 80, 2% HPMC, and 97% water) was administered orally, once daily, for 14 days with an observational phase to monitor tumor growth post-treatment. Tumor size was measured twice weekly in two dimensions using a caliper, and the volume was expressed in mm^3 using the formula: V=(a×b^2/2) where a and b are the long and short diameters of the tumor, respectively. Tumor Growth Inhibition (TGI) was calculated for each group using the formula: TGI %=(1−Ti/Vi)×100, where Ti is the mean tumor volume of the treatment group on the measurement day, and Vi is the mean tumor volume of the control group on the measurement day. Animal body weight was monitored regularly as an indicator of toxicity. […] Data points represent the group mean, and error bars represent the standard error of the mean (SEM).

hERG potassium channel = molecular target: T1, hERG potassium channel (Homo sapiens, UniProt Q12809); experiment: hERG inhibition assay (manual whole-cell patch-clamp, CHO cells); assay type: cell-based
T1 construct: host or cells: CHO
T1 sequence (Q12809 whole entry): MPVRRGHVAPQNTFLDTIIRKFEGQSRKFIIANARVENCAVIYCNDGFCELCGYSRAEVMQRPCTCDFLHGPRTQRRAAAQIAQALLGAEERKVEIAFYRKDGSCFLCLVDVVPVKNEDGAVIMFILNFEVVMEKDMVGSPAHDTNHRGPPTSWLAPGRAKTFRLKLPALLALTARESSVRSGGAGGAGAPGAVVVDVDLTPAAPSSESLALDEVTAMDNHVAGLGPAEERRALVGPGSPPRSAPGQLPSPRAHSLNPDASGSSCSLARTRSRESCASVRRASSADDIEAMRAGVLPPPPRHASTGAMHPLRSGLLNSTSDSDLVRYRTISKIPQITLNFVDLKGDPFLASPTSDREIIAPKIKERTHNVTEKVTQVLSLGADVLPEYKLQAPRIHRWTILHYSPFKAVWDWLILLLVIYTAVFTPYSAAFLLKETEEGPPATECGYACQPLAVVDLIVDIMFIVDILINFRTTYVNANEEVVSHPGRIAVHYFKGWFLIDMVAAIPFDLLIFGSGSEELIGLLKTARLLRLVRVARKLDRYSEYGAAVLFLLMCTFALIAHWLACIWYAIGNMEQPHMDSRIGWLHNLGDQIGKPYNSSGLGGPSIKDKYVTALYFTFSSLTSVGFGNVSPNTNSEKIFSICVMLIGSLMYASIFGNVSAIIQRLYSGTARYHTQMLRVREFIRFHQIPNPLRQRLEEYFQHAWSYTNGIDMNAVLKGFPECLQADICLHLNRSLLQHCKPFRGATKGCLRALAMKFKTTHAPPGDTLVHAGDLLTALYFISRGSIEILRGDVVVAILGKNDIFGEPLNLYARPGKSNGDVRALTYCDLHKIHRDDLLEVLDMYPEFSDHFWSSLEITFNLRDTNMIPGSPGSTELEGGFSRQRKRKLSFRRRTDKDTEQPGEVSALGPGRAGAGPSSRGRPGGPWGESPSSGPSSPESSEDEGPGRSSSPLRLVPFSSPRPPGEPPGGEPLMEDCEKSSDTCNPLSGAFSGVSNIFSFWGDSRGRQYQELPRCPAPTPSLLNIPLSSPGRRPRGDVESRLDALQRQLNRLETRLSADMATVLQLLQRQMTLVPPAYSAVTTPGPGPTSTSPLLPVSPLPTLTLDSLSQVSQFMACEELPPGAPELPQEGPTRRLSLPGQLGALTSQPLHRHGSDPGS
Protocol: Compounds were tested for the potential to inhibit the hERG potassium channel. It is known that inhibition of the hERG channel may cause QT prolongation and increase the risk of cardiac arrhythmias. Therefore, to avoid cardiotoxicity, a compound with relatively low or no inhibition of the channel is desirable. Manual whole-cell patch-clamp recordings were made in Chinese hamster ovary (CHO) cells stably expressing hERG channels (B'Sys, Switzerland). Standard intracellular and bath solutions for hERG current detection were used. Cells were exposed to test compounds at 6 concentrations prepared by 1:3 serial dilution of compounds from a top starting concentration of 30 μM. Currents were elicited by stepping the voltage from a holding potential of −80 mV to −50 mV (20 ms) and then stepping to +40 mV (4 s). A subsequent step to −50 mV (4 s) was used to elicit a tail current which was used for data analysis. Current recordings were made in triplicate using three different cells. Data normalized to the activity in vehicle (0.1 or 0.3% DMSO) were fit with 4-parameter non-linear regression, and IC50 values were determined from the dose-response curves, using GraphPad Prism software.

[3] = system: NCI-H358 subcutaneous xenograft tumors; experiment: NCI-H358 mouse xenograft model
Protocol: NCI-H358 cells were injected subcutaneously (5×10^6 cells in 0.1 mL of PBS) into the right flanks of 6-8-week-old female BALB/c nude mice and allowed to grow until the average tumor size reached 150-200 mm^3. The mice were then stratified into treatment groups of 4-8 animals and treatment initiated on Day 0. Test compound or vehicle (1% Tween 80, 2% HPMC, and 97% water) was administered orally, once daily, for 21 days. Tumor size was measured twice weekly in two dimensions using a caliper, and the volume was expressed in mm^3 using the formula: V=(a×b^2/2) where a and b are the long and short diameters of the tumor, respectively. Tumor Growth Inhibition (TGI) was calculated for each group using the formula: TGI %=(1−Ti/Vi)×100, where Ti is the mean tumor volume of the treatment group on the measurement day, and Vi is the mean tumor volume of the control group on the measurement day. Animal body weight was monitored regularly as an indicator of toxicity. […] Data points represent the group mean, and error bars represent the standard error of the mean (SEM).

KRAS G12C protein = KRAS G12C protein (Homo sapiens, UniProt P01116, G12C); experiment: Nucleotide exchange assay (Method III, KRAS G12C/Raf-RBD TR-FRET); assay type: biochemical; conditions: SOS1-mediated exchange of GDP for GTP, 18 hr compound incubation
KRAS G12C protein, sequence (P01116 1-188 isoform P01116-2 G12C): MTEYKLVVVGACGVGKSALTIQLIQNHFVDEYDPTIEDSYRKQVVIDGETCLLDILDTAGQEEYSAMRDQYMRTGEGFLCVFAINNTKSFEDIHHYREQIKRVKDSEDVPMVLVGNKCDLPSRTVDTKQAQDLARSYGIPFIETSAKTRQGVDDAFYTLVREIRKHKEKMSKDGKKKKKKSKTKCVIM
Outline: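 His-tagged GDP-bound KRAS G12C (25 nM in 2× mix) was preincubated with an 11-point, 3-fold compound series for 18 hr at 23° C, then SOS1/GTP was added for 1 hr. FLAG-Raf-RBD with Tb-anti-FLAG/D2-anti-His followed for 2 hr at room temperature. TR-FRET was read, and IC50 was obtained by non-linear regression.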

C=C(F)C(=O)N1CCN(c2nc(OC[C@@H]3CCCN3C)nc3c2CO[C@@H](c2cccc4cccc(Cl)c24)C3)C[C@@H]1CC#N (single isomer, unassigned) [43 (Isomer B)]
IC50 [1]: ≤ 300 nM
IC50 (NCI-H358 cells): ≤ 100 nM
TGI ([2]; 10 mg/kg orally once daily, Day 14 after treatment start): 9.0%
TGI ([2]; 30 mg/kg orally once daily, Day 14 after treatment start (day not restated for comparator)): 75.5%
TGI ([2]; 100 mg/kg orally once daily, Day 14 after treatment start): 94.6%
tolerability (from body weight) ([2]; orally once daily for 14 days): well-tolerated
IC50 (hERG potassium channel): 3610 nM
TGI ([3]; 10 mg/kg orally once daily, Day 20 after treatment start): 15.1%
TGI ([3]; 30 mg/kg orally once daily, Day 20 after treatment start (day not restated for comparators)): 43.6%
TGI ([3]; 100 mg/kg orally once daily, Day 20 after treatment start): 94.6%
tolerability (from body weight) ([3]; 10, 30 and 100 mg/kg orally once daily for 21 days): well-tolerated
weight loss ([3]; none of the mice greater than this, 10, 30 and 100 mg/kg once daily): ≤ 10%
IC50 (KRAS G12C protein): ≤ 300 nM
